What follows are compounds tested against T1, human TGR5 (Homo sapiens, UniProt Q8TDU6) (assay: Cell-based TGR5 assay (cAMP generation, HTRF)). Conditions: HEK293 cells stably transfected with human TGR5; cAMP by HTRF; 30 minutes at 37° C.; read-out: pEC50 Human TGR5 (converted).
T1 construct: expressed in transfected cells; host or cells: HEK293
T1 sequence (Q8TDU6 1-330): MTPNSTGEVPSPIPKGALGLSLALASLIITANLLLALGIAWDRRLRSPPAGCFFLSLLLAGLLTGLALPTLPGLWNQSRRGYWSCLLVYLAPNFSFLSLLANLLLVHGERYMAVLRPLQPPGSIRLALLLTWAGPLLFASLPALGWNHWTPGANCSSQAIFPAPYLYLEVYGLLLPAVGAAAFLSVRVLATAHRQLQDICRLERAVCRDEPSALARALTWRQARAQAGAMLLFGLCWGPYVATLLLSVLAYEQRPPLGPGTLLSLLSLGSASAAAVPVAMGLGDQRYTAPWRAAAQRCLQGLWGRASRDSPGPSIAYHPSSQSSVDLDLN
Outline: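 Read-out was HTRF detection of cAMP, converted to concentration via a standard curve and fitted (3-parameter logistic) for pEC50 and maximal response. Agonist stimulation used HEK293 cells stably transfected with human TGR5, incubated 30 min at 37° C in IBMX-containing buffer at 0.05 nM to 10 μM compound.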
O=C1NCCN1CCN(CCCSc1ccc(Cl)c(COC2(c3cnccc3-c3ccccc3OC3CC3)CC2)c1)C(=O)[C@@H](O)[C@@H](O)[C@H](O)[C@@H](O)CO [Compound I-543, (2S,3S,4R,5S)-N-(3-{[4-chloro-3-({1-[4-(2-cyclopropoxyphenyl)pyridin-3-yl]cyclopropoxy}methyl)phenyl]sulfanyl}propyl)-2,3,4,5,6-pentahydroxy-N-[2-(2-oxoimidazolidin-1-yl)ethyl]hexanamide] was tested, and the EC50 was 126 to 1000 nM.
For CSc1ncc(C)c(CNC2(c3cnccc3-c3ccccc3OC3CC3)CC2)n1 [Compound I-496, 1-[4-(2-Cyclopropoxyphenyl)pyridin-3-yl]-N-[[5-methyl-2-(methylsulfanyl)pyrimidin-4-yl]methyl]cyclopropan-1-amine], the EC50 was under 100 nM.
Compound CC(CCCC(=O)N(CCCS(C)(=O)=O)C[C@H](O)[C@@H](O)[C@H](O)[C@H](O)CO)c1ccc(Cl)c(CNC2(c3cnccc3-c3ccccc3OC3CC3)CC2)c1 (stereo partly drawn) [Compound I-347, 5-{4-chloro-3-[({1-[4-(2-cyclopropoxyphenyl)pyridin-3-yl]cyclopropyl}amino)methyl]phenyl}-N-(3-methanesulfonylpropyl)-N-[(2S,3R,4R,5R)-2,3,4,5,6-pentahydroxyhexyl]hexanamide] has an EC50 of under 100 nM.
In the case of O=C(CN1CCN(S(=O)(=O)c2ccc(Cl)c(COC3(c4cnccc4-c4ccccc4OC4CC4)CC3)c2)CC1)NC[C@H](O)[C@@H](O)[C@H](O)[C@H](O)CO [Compound I-440, 2-{4-[4-chloro-3-({1-[4-(2-cyclopropoxyphenyl)pyridin-3-yl]cyclopropoxy}methyl)benzenesulfonyl]piperazin-1-yl}-N-[(2S,3R,4R,5R)-2,3,4,5,6-pentahydroxyhexyl]acetamide], the EC50 is reported as 126 to 1000 nM.
CS(=O)(=O)CCN(CCCCSc1ccc(Cl)c(COC2(c3cnccc3-c3ccccc3OC3CC3)CC2)c1)C[C@H](O)[C@@H](O)[C@H](O)[C@H](O)CO [Compound I-613, (2R,3R,4R,5S)-6-[(4-{[4-chloro-3-({1-[4-(2-cyclopropoxyphenyl)pyridin-3-yl]cyclopropoxy}methyl)phenyl]sulfanyl}butyl)(2-methanesulfonylethyl)amino]hexane-1,2,3,4,5-pentol] gave an EC50 of under 100 nM.
With O=C(NCCCCc1ccc(Cl)c(CNC2(c3cnccc3-c3ccccc3OC3CC3)CC2)c1)NC[C@H](O)[C@@H](O)[C@H](O)[C@H](O)CO (stereo in doubt) [Compound I-241, 1-(4-{4-chloro-3-[({1-[4-(2-cyclopropoxyphenyl)pyridin-3-yl]cyclopropyl}amino)methyl]phenyl}butyl)-3-[(2S,3R,4R,5R)-2,3,4,5,6-pentahydroxyhexyl]urea] the EC50 was 126 to 1000 nM.
CC(CCCC(=O)N(C[C@@H](O)[C@H](O)[C@@H](O)[C@@H](O)CO)CC(C)(C)CO)c1ccc(Cl)c(CNC2(c3cnccc3-c3ccccc3OC3CC3)CC2)c1 (stereo partly drawn) [Compound I-341, 5-{4-chloro-3-[({1-[4-(2-cyclopropoxyphenyl)pyridin-3-yl]cyclopropyl}amino)methyl]phenyl}-N-(3-hydroxy-2,2-dimethylpropyl)-N-[(2R,3S,4S,5S)-2,3,4,5,6-pentahydroxyhexyl]hexanamide] was tested, and the EC50 was under 100 nM.
With CC(=O)NCCN(CCCSc1ccc(Cl)c(COC2(c3cnccc3-c3ccccc3OC3CC3)CC2)c1)C(=O)[C@@H](O)[C@@H](O)[C@H](O)[C@@H](O)CO [Compound I-595, (2S,3S,4R,5S)-N-(3-{[4-chloro-3-({1-[4-(2-cyclopropoxyphenyl)pyridin-3-yl]cyclopropoxy}methyl)phenyl]sulfanyl}propyl)-N-(2-acetamidoethyl)-2,3,4,5,6-pentahydroxyhexanamide] the EC50 was 126 to 1000 nM.
For O=C(NCCCC1(c2ccc(Cl)c(CNC3(c4cnccc4-c4ccccc4OC4CC4)CC3)c2)CC1)NC[C@H](O)[C@@H](O)[C@H](O)[C@H](O)CO [Compound I-385, 1-[3-(1-{4-chloro-3-[({1-[4-(2-cyclopropoxyphenyl)pyridin-3-yl]cyclopropyl}amino)methyl]phenyl}cyclopropyl)propyl]-3-[(2S,3R,4R,5R)-2,3,4,5,6-pentahydroxyhexyl]urea], the EC50 was under 100 nM.
Compound CC(=O)N(CCCCc1cc(Cl)c(COC2(c3cnccc3-c3ccccc3OC3CC3)CC2)cc1Cl)C[C@H](O)[C@@H](O)[C@H](O)[C@H](O)CO [Compound I-68, N-{4-[2,5-dichloro-4-({1-[4-(2-cyclopropoxyphenyl)pyridin-3-yl]cyclopropoxy}methyl)phenyl]butyl}-N-[(2S,3R,4R,5R)-2,3,4,5,6-pentahydroxyhexyl]acetamide] has an EC50 of under 100 nM.
With O=C([C@@H](O)[C@@H](O)[C@H](O)[C@@H](O)CO)N(CCCCSc1ccc(Cl)c(COC2(c3cnccc3-c3ccccc3OC3CC3)CC2)c1)CCOCCO [Compound I-512, (2S,3S,4R,5S)-N-(4-{[4-chloro-3-({1-[4-(2-cyclopropoxyphenyl)pyridin-3-yl]cyclopropoxy}methyl)phenyl]sulfanyl}butyl)-2,3,4,5,6-pentahydroxy-N-[2-(2-hydroxyethoxy)ethyl]hexanamide] the EC50 was under 100 nM.
O=C(NCCC1CCN(S(=O)(=O)c2ccc(Cl)c(COC3(c4cnccc4-c4ccccc4OC4CC4)CC3)c2)CC1)[C@@H](O)[C@@H](O)[C@H](O)[C@@H](O)CO [Compound I-462, (2S,3S,4R,5S)-N-(2-{1-[4-chloro-3-({1-[4-(2-cyclopropoxyphenyl)pyridin-3-yl]cyclopropoxy}methyl)benzenesulfonyl]piperidin-4-yl}ethyl)-2,3,4,5,6-pentahydroxyhexanamide] showed an EC50 of under 100 nM.
CCS(=O)(=O)CCN(CCCC(C)c1ccc(Cl)c(COC2(c3cnccc3-c3ccccc3OC3CC3)CC2)c1)C(=O)[C@@H](O)[C@@H](O)[C@H](O)[C@@H](O)CO (stereo partly drawn) [Compound I-310, (2S,3S,4R,5S)-N-{4-[4-chloro-3-({1-[4-(2-cyclopropoxyphenyl)pyridin-3-yl]cyclopropoxy}methyl)phenyl]pentyl}-N-[2-(ethanesulfonyl)ethyl]-2,3,4,5,6-pentahydroxyhexanamide] gave an EC50 of under 100 nM.
With O=C(NCCCCCSc1ccc(Cl)c(COC2(c3cnccc3-c3ccccc3OC3CC3)CC2)c1)N[C@@H](CO)[C@@H](O)[C@H](O)[C@H](O)CO [Compound I-636, 1-(5-{[4-chloro-3-({1-[4-(2-cyclopropoxyphenyl)pyridin-3-yl]cyclopropoxy}methyl)phenyl]sulfanyl}pentyl)-3-[(2S,3R,4S,5R)-1,3,4,5,6-pentahydroxyhexan-2-yl]urea] the EC50 was under 100 nM.
CCN(CCCCNC(=O)N[C@@H](CO)[C@@H](O)[C@H](O)[C@H](O)CO)S(=O)(=O)c1ccc(Cl)c(COC2(c3cnccc3-c3ccccc3OC3CC3)CC2)c1 [Compound I-465, 1-{4-[N-ethyl4-chloro-3-({1-[4-(2-cyclopropoxyphenyl)pyridin-3-yl]cyclopropoxy}methyl)benzenesulfonamido]butyl}-3-[(2S,3R,4S,5R)-1,3,4,5,6-pentahydroxyhexan-2-yl]urea] gave an EC50 of under 100 nM.
Compound CN(C[C@H](O)[C@@H](O)[C@H](O)[C@H](O)CO)C(=O)c1ccc(CSc2ccc(Cl)c(COC3(c4cnccc4-c4ccccc4OC4CC4)CC3)c2)cc1 [Compound I-685, 4-({[4-chloro-3-({1-[4-(2-cyclopropoxyphenyl)pyridin-3-yl]cyclopropoxy}methyl)phenyl]sulfanyl}methyl)-N-methyl-N-[(2S,3R,4R,5R)-2,3,4,5,6-pentahydroxyhexyl]benzamide] has an EC50 of under 100 nM.
Compound Cc1ccc(C(C)CCCCNC(=O)[C@@H](O)[C@@H](O)[C@H](O)[C@@H](O)CO)cc1COC1(c2cnccc2-c2ccccc2OC2CC2)CC1 (stereo partly drawn) [Compound I-312, (2S,3S,4R,5S)-N-{5-[3-({1-[4-(2-cyclopropoxyphenyl)pyridin-3-yl]cyclopropoxy}methyl)-4-methylphenyl]hexyl}-2,3,4,5,6-pentahydroxyhexanamide] has an EC50 of under 100 nM.
In the case of CN(CCSc1ccc(Cl)c(COC2(c3cnccc3-c3ccccc3OC3CC3)CC2)c1)C(=O)[C@@H](O)[C@@H](O)[C@H](O)[C@@H](O)CO [Compound I-555, (2S,3S,4R,5S)-N-(2-{[4-chloro-3-({1-[4-(2-cyclopropoxyphenyl)pyridin-3-yl]cyclopropoxy}methyl)phenyl]sulfanyl}ethyl)-2,3,4,5,6-pentahydroxy-N-methylhexanamide], the EC50 is reported as under 100 nM.
For Cc1ccc(SCCCN(CCCCO)C(=O)[C@@H](O)[C@@H](O)[C@H](O)[C@@H](O)CO)cc1COC1(c2cnccc2-c2ccccc2OC2CC2)CC1 [Compound I-539, (2S,3S,4R,5S)-N-(3-{[3-({1-[4-(2-cyclopropoxyphenyl)pyridin-3-yl]cyclopropoxy}methyl)-4-methylphenyl]sulfanyl}propyl)-2,3,4,5,6-pentahydroxy-N-(4-hydroxybutyl)hexanamide], the EC50 was 126 to 1000 nM.
In the case of O=S(=O)(c1ccc(Cl)c(COC2(c3cnccc3-c3ccccc3OC3CC3)CC2)c1)N1CCCC1 [Compound I-395, 3-(1-{[2-chloro-5-(pyrrolidine-1-sulfonyl)phenyl]methoxy}cyclopropyl)-4-(2-cyclopropoxyphenyl)pyridine], the EC50 is reported as under 100 nM.
For CS(=O)(=O)NCCCCN(CCCCSc1ccc(Cl)c(CNC2(c3cnccc3-c3ccccc3OC3CC3)CC2)c1)C(=O)[C@@H](O)[C@@H](O)[C@H](O)[C@@H](O)CO [Compound I-582, (2S,3S,4R,5S)-N-[4-({4-chloro-3-[({1-[4-(2-cyclopropoxyphenyl)pyridin-3-yl]cyclopropyl}amino)methyl]phenyl}sulfanyl)butyl]-2,3,4,5,6-pentahydroxy-N-(4-methanesulfonamidobutyl) hexanamide], the EC50 was under 100 nM.

From patent US12084472B2 (Ardelyx, Inc., priority 2015, dated 2024)
